Measurements: the supplement of paper PMC11061612

Legend:
[1] = compound: CC1=C(C(=CC=C1)Cl)NC(=O)C2=CN=C(S2)NC3=CC(=NC(=N3)C)N4CCN(CC4)CCO [Dasatinib]; conditions: max 2 µM
Procedure, shortened: (§1)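 Following 24 hours at 37°C and 5% CO2, cancer cell lines in 1536-well plates with 7.5 μl DMEM/F12 or RPMI and 10% FBS were dosed for 72 hours, final DMSO typically being 0.2%. CellTiter-Glo 2.0 luminescence, scaled between blank-well and DMSO-well means, gave the viability readout. Dose responses were fitted to a two-parameter logistic curve with a non-linear mixed effects model, and the single-agent IC50 was derived from this fit.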

[2] = compound: COc1cccc2c1C(=O)c1c(O)c3c(c(O)c1C2=O)C[C@@](O)(C(=O)CO)C[C@@H]3O[C@H]1C[C@H](N)[C@H](O)[C@H](C)O1 [Doxorubicin]; conditions: max 1 µM
Procedure, shortened: as §1

[3] = compound: Cc1cc2ncnn2cc1Nc1ncc2c(n1)n(C1CCOCC1)c(=O)n2C [AZD7648]; conditions: max 10 µM
Procedure, shortened: as §1

[4] = compound: COc1cc(Nc2ncc3c(n2)-c2ccc(Cl)cc2C(c2c(F)cccc2OC)=NC3)ccc1C(=O)O [Alisertib]; conditions: max 10 µM
Procedure, shortened: as §1

[5] = compound: CCN(CCO)CCCOc1ccc2c(Nc3cc(CC(=O)Nc4cccc(F)c4)[nH]n3)ncnc2c1 [AZD2811]; conditions: max 1 µM
Procedure, shortened: as §1

[6] = compound: C[C@@H]1COCCN1C2=NC(=NC(=C2)C3(CC3)[S@](=N)(=O)C)C4=C5C=CNC5=NC=C4 [AZD6738]; conditions: max 10 µM
Procedure, shortened: as §1

[7] = compound: CN(CC[C@H](CSC1=CC=CC=C1)NC2=C(C=C(C=C2)S(=O)(=O)NC(=O)C3=CC=C(C=C3)N4CCC(CC4)[C@H](C5=CC=CC=C5C6=CC=C(C=C6)Cl)O)S(=O)(=O)C(F)(F)F)CCO [AZD4320]; conditions: max 1 µM
Procedure, shortened: as §1

[8] = compound: O=C(Nc1ccc2[nH]nc(-c3ccncc3)c2c1)[C@@H]1CCN(CC(=O)N2CCN(c3ccc(-c4ncccn4)cc3)CC2)C1; conditions: max 5 µM
Procedure, shortened: as §1

[9] = compound: C=CCn1c(=O)c2cnc(Nc3ccc(N4CCN(C)CC4)cc3)nc2n1-c1cccc(C(C)(C)O)n1 [AZD1775]; conditions: max 3 µM
Procedure, shortened: as §1

[10] = compound: CCc1c2c(nc3ccc(O)cc13)-c1cc3c(c(=O)n1C2)COC(=O)[C@]3(O)CC [SN-38]; conditions: max 0.3 µM
Procedure, shortened: as §1

[11] = compound: Nc1ccn([C@@H]2O[C@H](CO)[C@@H](O)C2(F)F)c(=O)n1 [Gemcitabine]; conditions: max 0.3 µM
Procedure, shortened: as §1

[12] = compound: COc1cc([C@@H]2c3cc4c(cc3[C@@H](O[C@@H]3O[C@@H]5CO[C@@H](C)O[C@H]5[C@H](O)[C@H]3O)[C@H]3COC(=O)[C@H]23)OCO4)cc(OC)c1O [Etoposide]; conditions: max 10 µM
Procedure, shortened: as §1

[13] = compound: C[C@@H](Nc1cc(F)cc(F)c1)c1cc(C(=O)N(C)C)cc2c(=O)cc(N3CCOCC3)oc12 [AZD8186]; conditions: max 10 µM
Procedure, shortened: as §1

[14] = compound: C1CC(C1)(C(=O)[O-])C(=O)[O-].N.N.[Pt+2] [Carboplatin]; conditions: max 10 µM
Procedure, shortened: as §1

[15] = compound: CN(C)CCCOc1ccc(-c2ccc3ncc4c(c3c2)n(C2CCOCC2)c(=O)n4C)cn1 [AZD0156]; conditions: max 3 µM
Procedure, shortened: as §1

[16] = compound: C[C@@H](c1ccc2nccn2c1)n1nnc2ncc(-c3cnn(C)c3)nc21 [Savolitinib]; conditions: max 1 µM
Procedure, shortened: as §1

[17] = compound: CC1(C)CCC(CN2CCN(c3ccc(C(=O)NS(=O)(=O)c4ccc(NCC5CCOCC5)c([N+](=O)[O-])c4)c(Oc4cnc5[nH]ccc5c4)c3)CC2)=C(c2ccc(Cl)cc2)C1 [Venetoclax]; conditions: max 1 µM
Procedure, shortened: as §1

[18] = compound: O=C(c1cc(Cc2n[nH]c(=O)c3ccccc23)ccc1F)N1CCN(C(=O)C2CC2)CC1 [Olaparib]; conditions: max 10 µM
Procedure, shortened: as §1

[19] = compound: Cc1nc(-c2cn3c(n2)-c2ccc(-c4cnn(C(C)(C)C(N)=O)c4)cc2OCC3)n(C(C)C)n1 [Taselisib]; conditions: max 10 µM
Procedure, shortened: as §1

[20] = compound: NC1(c2ccc(-c3nc4ccn5c(=O)[nH]nc5c4cc3-c3ccccc3)cc2)CCC1 [MK-2206]; conditions: max 10 µM
Procedure, shortened: as §1

[21] = compound: CC(C)n1c(=O)n(C)c2cnc3cc(F)c(-c4ccc(OCCCN5CCCCC5)nc4)cc3c21 [AZD1390]; conditions: max 0.3 µM
Procedure, shortened: as §1

[22] = compound: N#Cc1cnc(Nc2cc(NC[C@H]3CNCCO3)c(C(F)(F)F)cn2)cn1 [SRA737]; conditions: max 10 µM
Procedure, shortened: as §1

[23] = compound: COc1nnc2ccc(N3CCC(c4ccc(OCCN5CCN(C)C(=O)[C@H]5C)cc4)CC3)nn12 [AZD5153]; conditions: max 1 µM
Procedure, shortened: as §1

[24] = compound: C1CN(CCC1(C(=O)N[C@@H](CCO)C2=CC=C(C=C2)Cl)N)C3=NC=NC4=C3C=CN4 [AZD5363]; conditions: max 10 µM
Procedure, shortened: as §1

[25] = compound: Cn1cnc2c(F)c(Nc3ccc(Br)cc3Cl)c(C(=O)NOCCO)cc21 [Selumetinib]; conditions: max 10 µM
Procedure, shortened: as §1

[26] = compound: C[C@@H](Oc1cc(-c2cnn(C3CCNCC3)c2)cnc1N)c1c(Cl)ccc(F)c1Cl [Crizotinib]; conditions: max 10 µM
Procedure, shortened: as §1

[27] = compound: CC1=CN2[C@@H](C1)C=NC3=CC(=C(C=C3C2=O)OC)OCCCCCOC4=C(C=C5C(=C4)N=C[C@@H]6CC(=CN6C5=O)C)OC [SG3199]; conditions: max 0.001 µM
Procedure, shortened: as §1

[28] = compound: O=c1[nH]cc(F)c(=O)[nH]1 [5-Fluorouracil]; conditions: max 20 µM
Procedure, shortened: as §1

[29] = compound: COc1cccc(OCCCN)c1-c1cc(Nc2cnc(C#N)cn2)n[nH]1 [Prexasertib]; conditions: max 1 µM
Procedure, shortened: as §1

[30] = compound: CC(=O)O[C@H]1C(=O)[C@@]2(C)[C@H]([C@H](OC(=O)c3ccccc3)[C@]3(O)C[C@H](OC(=O)[C@H](O)[C@@H](NC(=O)c4ccccc4)c4ccccc4)C(C)=C1C3(C)C)[C@]1(OC(C)=O)CO[C@@H]1C[C@@H]2O [Paclitaxel]; conditions: max 3 µM
Procedure, shortened: as §1

[31] = compound: CS(=O)(=O)CCNCc1ccc(-c2ccc3ncnc(Nc4ccc(OCc5cccc(F)c5)c(Cl)c4)c3c2)o1 [Lapatinib]; conditions: max 10 µM
Procedure, shortened: as §1

[32] = compound: CC(=O)Nc1cccc(-n2c(=O)n(C3CC3)c(=O)c3c(Nc4ccc(I)cc4F)n(C)c(=O)c(C)c32)c1 [Trametinib]; conditions: max 1 µM
Procedure, shortened: as §1

[33] = compound: COc1cc2ncnc(Nc3ccc(F)c(Cl)c3)c2cc1OCCCN1CCOCC1 [Gefitinib]; conditions: max 10 µM
Procedure, shortened: as §1

[34] = compound: CC(=O)c1c(C)c2cnc(Nc3ccc(N4CCNCC4)cn3)nc2n(C2CCCC2)c1=O [Palbociclib]; conditions: max 10 µM
Procedure, shortened: as §1

[35] = compound: Cc1c2c(nn1C)CSCc1cc(n(C)n1)CSc1cc(c3ccccc3c1)OCCCc1c(C(=O)O)n(C)c3c-2c(Cl)ccc13 [AZD5991]; conditions: max 1 µM
Procedure, shortened: as §1

Row | Cell Line | IC50, cell viability 72 h [1] [nM] | IC50, cell viability 72 h [2] [nM] | IC50, cell viability 72 h [3] [nM] | IC50, cell viability 72 h [4] [nM] | IC50, cell viability 72 h [5] [nM] | IC50, cell viability 72 h [6] [nM] | IC50, cell viability 72 h [7] [nM] | IC50, cell viability 72 h [8] [nM] | IC50, cell viability 72 h [9] [nM] | IC50, cell viability 72 h [10] [nM] | IC50, cell viability 72 h [11] [nM] | IC50, cell viability 72 h [12] [nM] | IC50, cell viability 72 h [13] [nM] | IC50, cell viability 72 h [14] [nM] | IC50, cell viability 72 h [15] [nM] | IC50, cell viability 72 h [16] [nM] | IC50, cell viability 72 h [17] [nM] | IC50, cell viability 72 h [18] [nM] | IC50, cell viability 72 h [19] [nM] | IC50, cell viability 72 h [20] [nM] | IC50, cell viability 72 h [21] [nM] | IC50, cell viability 72 h [22] [nM] | IC50, cell viability 72 h [23] [nM] | IC50, cell viability 72 h [24] [nM] | IC50, cell viability 72 h [25] [nM] | IC50, cell viability 72 h [26] [nM] | IC50, cell viability 72 h [27] [nM] | IC50, cell viability 72 h [28] [nM] | IC50, cell viability 72 h [29] [nM] | IC50, cell viability 72 h [30] [nM] | IC50, cell viability 72 h [31] [nM] | IC50, cell viability 72 h [32] [nM] | IC50, cell viability 72 h [33] [nM] | IC50, cell viability 72 h [34] [nM] | IC50, cell viability 72 h [35] [nM]
1 | TGBC11TKB (Gastric Carcinoma) | > 2000 | > 1000 | > 10000 | > 10000 | > 1000 | 2020 | > 1000 | > 5000 | 287 | 159 | 45.4 | > 10000 | > 10000 | > 10000 | > 3000 | > 1000 | > 1000 | > 10000 | > 10000 | > 10000 | > 300 | 1710 | > 1000 | > 10000 | 8400 | > 10000 | > 1 | > 20000 | 11.2 | 20.4 | > 10000 | 522 | > 10000 | > 10000 | > 1000
2 | KINGS-1 (Low Grade Glioma) | > 2000 | > 1000 | > 10000 | > 10000 | > 1000 | > 10000 | > 1000 | > 5000 | > 3000 | > 300 | > 300 | > 10000 | > 10000 | > 10000 | > 3000 | > 1000 | > 1000 | > 10000 | > 10000 | > 10000 | > 300 | > 10000 | > 1000 | > 10000 | > 10000 | > 10000 | > 1 | > 20000 | > 1000 | > 3000 | > 10000 | > 1000 | > 10000 | > 10000 | > 1000
3 | HSC-2 (Oral Cavity Carcinoma) | 176 | 367 | > 10000 | 2400 | > 1000 | 8500 | > 1000 | > 5000 | 2130 | 5.35 | 18.2 | 4420 | > 10000 | > 10000 | > 3000 | > 1000 | > 1000 | > 10000 | 171 | > 10000 | > 300 | > 10000 | 238 | > 10000 | > 10000 | > 10000 | > 1 | > 20000 | 124 | 3.31 | 4010 | > 1000 | 3960 | > 10000 | 439
4 | EW-3 (Ewing's Sarcoma) | > 2000 | 86.7 | > 10000 | 8570 | > 1000 | 2030 | 27.6 | > 5000 | 2300 | 2.07 | 8.11 | 1100 | > 10000 | > 10000 | > 3000 | > 1000 | 401 | > 10000 | > 10000 | > 10000 | > 300 | > 10000 | 496 | > 10000 | > 10000 | 9570 | > 1 | > 20000 | 183 | 17.5 | > 10000 | > 1000 | > 10000 | > 10000 | 470
5 | SNU-C1 (Colorectal Carcinoma) | > 2000 | > 1000 | > 10000 | > 10000 | > 1000 | > 10000 | > 1000 | 802 | > 3000 | > 300 | > 300 | > 10000 | > 10000 | > 10000 | > 3000 | > 1000 | > 1000 | > 10000 | 3360 | 9530 | > 300 | > 10000 | > 1000 | > 10000 | 1260 | > 10000 | > 1 | > 20000 | 73.5 | > 3000 | > 10000 | 75.1 | > 10000 | > 10000 | > 1000
6 | NB7 (Neuroblastoma) | > 2000 | > 1000 | > 10000 | 6060 | > 1000 | > 10000 | > 1000 | > 5000 | 963 | 34.9 | 141 | 6520 | > 10000 | > 10000 | > 3000 | > 1000 | > 1000 | > 10000 | > 10000 | > 10000 | > 300 | > 10000 | > 1000 | > 10000 | > 10000 | > 10000 | > 1 | > 20000 | 72 | 268 | > 10000 | > 1000 | > 10000 | > 10000 | > 1000
